From patent US20240294499A1, “TARGETED PROTEIN DEGRADATION USING BIFUNCTIONAL COMPOUNDS THAT BIND UBIQUITIN LIGASE AND TARGET MCL-1 PROTEIN” (Captor Therapeutics S.A., priority 2021, published 2024)

What was measured:
[1] = system: hiPSC-CM (iCELL Cardiomyocytes); experiment: Cardiac safety: hiPSC-CM cell viability assay (CTG); type: cell-based, human; details: for IC50: Homo sapiens, Cardiomyocyte, 336 h, viability, CTG assay, treatment until day 14, read-out: Average pIC50 by molecule hiPSC-CM (converted); for activity in viability assay in cardiomyocytes: as opposed to reference compounds MIK665 and AZD5991
Text: The effect of various compounds of the invention and a reference compounds AZD5991 and MIK665 on cardiac safety was investigated by the evaluation of viability with CTG assay (Promega; cat #G7572) in iCELL™ Cardiomyocytes from FUJIFILM Cellular Dynamics (Catalog number: 11713).
Cells were thawed, counted using an automated cell counter (TC20, Bio-Rad) and seeded in 96 well plates (Greiner-BioOne; 655098) previously coated with 0.1% gelatin (Sigma-Aldrich; G1890) using Plating Medium (#M1001) following the instructions of the iCELL cardiomyocytes User Guide. Forty ml of Plating Medium was used to equally distribute the cells in four 96 well plates. Cells were then placed in the incubator at 37° C., 5% CO2 and left undisturbed for 48 hours. Compounds were serially diluted in DMSO and then further diluted to final assay concentration using maintenance medium (#M1003). Final DMSO concentration was 0.5%. Forty eight hours after plating, non-adherent cells and debris were washed as described in the User Guide. Plating medium was then replaced with maintenance medium containing diluted compounds or DMSO (as control). Medium was then changed every 2 days with fresh medium containing compounds or DMSO until the end of the treatment. On day 14, only medium without compounds was used immediately before the CTG assay. Luminescence signal was measured using a CLARIOstar Plus Multi-Mode Microplate Reader (574-590 nm).

ARH-77 cells = experiment: Cell viability assay (CellTiter-Glo), ARH-77; type: cell-based; details: Homo sapiens, ARH-77, 24 hours incubation, 1% FBS, read-out: Average pIC50 by molecule ARH-77 (converted)
In short: (§1)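 OPM-2, MV-4-11 and ARH-77 cells were grown in medium with 1% FBS and treated with compound in 1/3 dilutions from 30 uM (9–12 points, 0.5% DMSO). Viability was read by CellTiter-Glo luminescence after 24 hours and normalized to DMSO control.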

[2] = target: [MCL-1]-[compound of formula (I)]-[CRBN/DDB1] complex (Homo sapiens, UniProt Q07820+Q96SW2); experiment: AlphaLISA dose response ternary complex formation assay; type: binding; details: read-out: AlphaLISA dose response Average pEC50 by molecule (converted)
In short: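 EC50 comes from dose–response of AlphaLISA luminescence (excitation 680, emission 615 nm), normalised between DMSO background and an internal positive control, with concentrations past the hook point dropped. Ternary complex formed by mixing bead-bound biotin-hMCL-1 and His-CRBN/DDB1 (protein solutions 40 and 200 nM) with compound in 2% DMSO, 30 min, 25 °C.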

MV-4-11 cells = experiment: Cell viability assay (CellTiter-Glo), MV-4-11; type: cell-based; details: Homo sapiens, MV4-11, 24 hours incubation, 1% FBS, read-out: Average pIC50 by molecule MV-4-11 (converted)
In short: as §1

Chain of [MCL-1]-[compound of formula (I)]-[CRBN/DDB1] complex (Q07820 whole entry): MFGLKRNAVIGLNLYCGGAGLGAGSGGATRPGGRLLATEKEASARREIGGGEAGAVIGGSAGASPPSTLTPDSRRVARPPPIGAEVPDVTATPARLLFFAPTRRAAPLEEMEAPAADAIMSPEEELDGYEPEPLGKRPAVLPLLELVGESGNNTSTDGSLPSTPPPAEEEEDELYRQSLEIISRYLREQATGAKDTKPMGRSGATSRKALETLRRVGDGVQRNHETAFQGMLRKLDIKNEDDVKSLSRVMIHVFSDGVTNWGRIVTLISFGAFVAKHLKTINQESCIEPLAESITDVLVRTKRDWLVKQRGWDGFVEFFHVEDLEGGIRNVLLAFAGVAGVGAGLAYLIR
Chain of [MCL-1]-[compound of formula (I)]-[CRBN/DDB1] complex (Q96SW2 whole entry): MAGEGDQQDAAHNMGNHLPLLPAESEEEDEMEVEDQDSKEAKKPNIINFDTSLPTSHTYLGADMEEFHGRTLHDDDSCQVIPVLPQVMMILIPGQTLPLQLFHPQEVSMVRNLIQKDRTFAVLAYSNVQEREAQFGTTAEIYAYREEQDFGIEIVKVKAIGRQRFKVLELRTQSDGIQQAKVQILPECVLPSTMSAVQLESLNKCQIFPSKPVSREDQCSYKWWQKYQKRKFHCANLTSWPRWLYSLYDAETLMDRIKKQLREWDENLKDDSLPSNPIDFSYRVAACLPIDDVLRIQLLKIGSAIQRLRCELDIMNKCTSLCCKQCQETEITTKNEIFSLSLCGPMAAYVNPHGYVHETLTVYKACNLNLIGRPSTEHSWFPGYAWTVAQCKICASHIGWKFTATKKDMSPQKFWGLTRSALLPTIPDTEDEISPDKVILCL
Chain of [MCL-1]-[compound of formula (I)]-[CRBN/DDB1] complex (Q16531 whole entry partner): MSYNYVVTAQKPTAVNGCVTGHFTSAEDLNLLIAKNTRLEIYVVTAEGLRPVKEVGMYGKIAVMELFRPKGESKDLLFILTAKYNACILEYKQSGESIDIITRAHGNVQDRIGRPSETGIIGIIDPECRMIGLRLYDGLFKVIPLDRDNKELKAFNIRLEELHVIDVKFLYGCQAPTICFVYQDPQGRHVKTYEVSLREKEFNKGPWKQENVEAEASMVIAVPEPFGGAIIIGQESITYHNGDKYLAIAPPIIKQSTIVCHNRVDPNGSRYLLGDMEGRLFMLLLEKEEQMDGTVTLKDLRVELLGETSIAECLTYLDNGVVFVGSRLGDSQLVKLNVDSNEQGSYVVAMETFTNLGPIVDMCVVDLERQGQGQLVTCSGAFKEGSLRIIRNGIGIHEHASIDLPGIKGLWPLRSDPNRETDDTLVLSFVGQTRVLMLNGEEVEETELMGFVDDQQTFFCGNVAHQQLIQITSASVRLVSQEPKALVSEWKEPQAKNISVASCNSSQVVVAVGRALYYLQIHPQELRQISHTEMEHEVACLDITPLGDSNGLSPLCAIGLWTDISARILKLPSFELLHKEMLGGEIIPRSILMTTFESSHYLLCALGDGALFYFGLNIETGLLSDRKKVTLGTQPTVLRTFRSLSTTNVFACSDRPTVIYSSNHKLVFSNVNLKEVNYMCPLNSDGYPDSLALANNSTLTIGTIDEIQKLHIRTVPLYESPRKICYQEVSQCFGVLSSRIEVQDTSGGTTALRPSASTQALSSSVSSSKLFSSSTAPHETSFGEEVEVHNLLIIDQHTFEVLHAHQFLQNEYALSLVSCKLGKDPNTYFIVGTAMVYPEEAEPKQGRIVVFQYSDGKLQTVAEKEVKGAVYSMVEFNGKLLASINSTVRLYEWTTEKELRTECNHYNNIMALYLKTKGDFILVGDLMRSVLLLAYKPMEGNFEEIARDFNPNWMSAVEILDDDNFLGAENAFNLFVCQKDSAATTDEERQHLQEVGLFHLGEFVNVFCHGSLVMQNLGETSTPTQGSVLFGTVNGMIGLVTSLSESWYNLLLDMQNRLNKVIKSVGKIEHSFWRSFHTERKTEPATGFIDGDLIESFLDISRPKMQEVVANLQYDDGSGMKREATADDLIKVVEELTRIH

Row | SMILES | IC50 [1] [µM] | activity in viability assay in cardiomyocytes [1] | IC50 (ARH-77 cells) [µM] | EC50 [2] [µM] | IC50 (MV-4-11 cells) [µM]
1 | Cc1nn(C)c(C)c1-c1c(Cl)ccc2c(CCCOc3cccc4cc(F)ccc34)c(C(=O)O)n(CCN3CCN(C(=O)Cn4c(C)nc5c(C(=O)NC6CCC(=O)NC6=O)cccc54)CC3)c12 (stereo not shown) [Compound 268, 6-chloro-1-{2-[4-(2-{4-[(2,6-dioxopiperidin-3-yl)carbamoyl]-2-methyl-1H-1,3-benzodiazol-1-yl}acetyl)piperazin-1-yl]ethyl}-3-{3-[(6-fluoronaphthalen-1-yl)oxy]propyl}-7-(1,3,5-trimethyl-1H-pyrazol-4-yl)-1H-indole-2-carboxylic acid] | > 39.8 | much lower activity | – | – | –
2 | Cc1nn2c(c1-c1c(Cl)ccc3c(CCCOc4cccc5cc(F)ccc45)c(C(=O)O)n(CCN4CCN(C(=O)COc5cccc6c5CN(C5CCC(=O)NC5=O)C6=O)CC4)c13)COCC2 (stereo not shown) [Compound 346, 6-Chloro-1-(2-(4-(2-((2-(2,6-dioxopiperidin-3-yl)-1-oxoisoindolin-4-yl)oxy)acetyl)piperazin-1-yl)ethyl)-3-(3-((6-fluoronaphthalen-1-yl)oxy)propyl)-7-(2-methyl-6,7-dihydro-4H-pyrazolo[5,1-c][1,4]oxazin-3-yl)-1H-indole-2-carboxylic acid] | 10 | much lower activity | > 10 | < 0.1 | ≤ 0.1
3 | Cc1nn(C)c(C)c1-c1c(Cl)ccc2c(CCCOc3cccc4cc(F)ccc34)c(C(=O)O)n(CCN3CCN(C(=O)COc4cccc5c4CN(C4CCC(=O)NC4=O)C5=O)CC3)c12 (stereo not shown) [Compound 220, 6-chloro-1-{2-[4-(2-{[2-(2,6-dioxopiperidin-3-yl)-1-oxo-2,3-dihydro-1H-isoindol-4-yl]oxy}acetyl)piperazin-1-yl]ethyl}-3-{3-[(6-fluoronaphthalen-1-yl)oxy]propyl}-7-(1,3,5-trimethyl-1H-pyrazol-4-yl)-1H-indole-2-carboxylic acid] | 10 | much lower activity | > 10 | < 0.1 | ≤ 0.0316
4 | Cc1nn(C)c(C)c1-c1c(Cl)ccc2c(CCCOc3cccc4ccccc34)c(C(=O)O)n(CCN3CCN(C(=O)COc4cccc5c4C(=O)N(C4CCC(=O)NC4=O)C5=O)CC3)c12 (stereo not shown) [Compound 204, 6-chloro-1-(2-(4-(2-((2-(2,6-dioxopiperidin-3-yl)-1,3-dioxoisoindolin-4-yl)oxy)acetyl)piperazin-1-yl)ethyl)-3-(3-(naphthalen-1-yloxy)propyl)-7-(1,3,5-trimethyl-1H-pyrazol-4-yl)-1H-indole-2-carboxylic acid] | – | – | – | < 0.1 | ≤ 0.1
5 | Cc1nn(C)c(C)c1-c1c(F)ccc2c(CCCOc3cccc4cc(F)ccc34)c(C(=O)O)n(CCN3CCN(C(=O)COc4cccc5c4C(=O)N(C4CCC(=O)NC4=O)C5=O)CC3)c12 (stereo not shown) [Compound 215, 1-{2-[4-(2-{[2-(2,6-dioxopiperidin-3-yl)-1,3-dioxo-2,3-dihydro-1H-isoindol-4-yl]oxy}acetyl)piperazin-1-yl]ethyl}-6-fluoro-3-{3-[(6-fluoronaphthalen-1-yl)oxy]propyl}-7-(1,3,5-trimethyl-1H-pyrazol-4-yl)-1H-indole-2-carboxylic acid] | – | – | – | < 0.1 | ≤ 0.1
